Measured values published in US10493044B1, “Method for treating developmental retinal vascular disorder” (priority 2018, dated 2019).
“And” between values parts separate entries of the source, which are not always exact repeats. Identical values can stand only once.

Key:
HIF-1α = experiment: Western blot of retinal HIF-1α after I/R; assay type: in vivo, rat; conditions: intravitreal 1 day pre-ischemia: 10 μM/5 μl JIB-04, 4 μM/5 μl shikonin, 125 μg/5 μl avastin; Vehicle+I/R = 100%
Method: (§1) DNL was purchased from the Ko Da Company (Taipei, Taiwan) and dissolved in ddH2O. For the electrophysiological, immuohistochemical and molecular biological studies, drug administration was carried out for seven days and involved various groups, namely a post-ischemia administration (daily high dose of DNL at 1 g/kg/day, I/R+DNL1.0), or pre-ischemia administration (daily high dose of DNL, DNL1.0+I/R; low dose of DNL at 0.5 g/kg/day, DNL0.5+I/R). The rats in the vehicle group that were subjected to ischemia were either post-administered (I/R+Vehicle) or pre-administered with a similar volume of vehicle (Vehicle+I/R) as the DNL group.
(§2) As compared with the Sham, Vehicle+I/R or DNL1.0+I/R group, the ischemic eyes of other groups received intravitreal injections using a 30-gauge needle connected to a 25 μl syringe after the pupil was dilated with 1% tropicamide and 2.5% phenylephrine. […]
(§3) Retinal/cellular samples were retrieved and sonicated in lysis buffer, namely mammalian protein extraction reagent (MPER; HyCell). Identical quantities of denatured proteins (40 μg/30 μl/well) then underwent sodium dodecyl sulfate polyacrylamide gel electrophoresis (SDS-PAGE; Bio-Rad) as described previously. […] The amount of each protein was then evaluated by scanning densitometry.

VEGF = experiment: Western blot of retinal VEGF after I/R; assay type: in vivo, rat; conditions: intravitreal 1 day pre-ischemia: 10 μM/5 μl JIB-04, 4 μM/5 μl shikonin, 125 μg/5 μl avastin; Vehicle+I/R = 100%
Method: as §1
(§4) As compared with the Sham, Vehicle+I/R or DNL1.0+I/R group, the ischemic eyes of other groups received intravitreal injections using a 30-gauge needle connected to a 25 μl syringe after the pupil was dilated with 1% tropicamide and 2.5% phenylephrine. Specifically, the ischemic eyes received 1 day pre-ischemia intravitreal administrations of various inhibitors/antibodies, namely 10 μM/5 μl JIB-04 (Sigma-Aldrich), 4 μM/5 μl Shikonin (S7576; Sigma-Aldrich), 125 μg/5 μl Avastin (Hoffmann-La Roche), or 200 μg/5 μl Eylea (Regeneron Pharmaceuticals Inc.). One day after retinal I/R and administration of relevant compounds or after a sham procedure, the animals were sacrificed. Retinal samples were collected in order to measure the protein levels of […], RBP2, PKM2, VEGF-A and PLGF by the western blot assay or ELISA.
(§5) Ischemia induction. Each rat was anesthetized with the above anesthetics and placed in a stereotaxic frame. […]
as §3

RBP2 = experiment: Western blot of retinal RBP2 after I/R; assay type: in vivo, rat; conditions: intravitreal 1 day pre-ischemia: 10 μM/5 μl JIB-04, 4 μM/5 μl shikonin, 125 μg/5 μl avastin; Vehicle+I/R = 100%
Method: as §1, §4, §5, §3

PKM2 = experiment: Western blot of retinal PKM2 after I/R; assay type: in vivo, rat; conditions: intravitreal 1 day pre-ischemia: 10 μM/5 μl JIB-04, 4 μM/5 μl shikonin, 125 μg/5 μl avastin; Vehicle+I/R = 100%
Method: as §1, §4, §5, §3

[1] = tested on: norrie disease protein (NDP); experiment: Western blotting of NDP relative to β-actin in RGC-5 cells subjected to OGD; assay type: cell-based, mouse
Method: Moscatilin was purchased from EMMX Biotechnology (EN10271, CA, USA) and dissolved in DMSO (vehicle). […] Moscatilin (0.1 μM) was administered at 1 hour pre-OGD, during OGD, or at 1 hour post-OGD. Its therapeutic effects were evaluated by MTT and Western blotting assays.
(§6) The RCG-5 cell lines were not transformed rat RGCs but, rather, mouse retinal neuronal precursors. OGDs were defined as cells that were maintained in glucose-free DMEM (Thermo Fisher Scientific Inc.) at 37° C. under the hypoxic (ischemic-like) conditions, namely 1% O2 (monitored by an analyzer; Penguin Incubator: control range 1-89%; Astec Company, Kukuoka, Japan), 94% N2 and 5% CO2. There were different groups, consisting of cells that received (i) DMSO in DMEM (control cells; DMSO+DMEM), (ii) DMSO followed by OGD (DMSO+OGD), (iii) OGD and administration of moscatilin (0.1 μM in DMEM) at 1 hour pre-OGD (Pre-OGD Mos 0.1 μM), (iv) during OGD (During OGD Mos 0.1 μM), or (v) at 1 hour post-OGD (Post-OGD Mos 0.1 μM). At the end of the 1 day OGD period, the cell cultures were returned to fresh DMEM for another 24 h. The MTT (viability) and the Western blotting assays (NDP) were then performed.
Retinal/cellular samples were retrieved and sonicated in lysis buffer, namely mammalian protein extraction reagent (MPER; HyCell). Identical quantities of denatured proteins (40 μg/30 μl/well) then underwent sodium dodecyl sulfate polyacrylamide gel electrophoresis (SDS-PAGE; Bio-Rad) as described previously. After separation, the protein bands were transferred to a polyvinylidene difluoride (PVDF) membrane and then immersed for 12 hours at 4° C. with the following primary antibodies, mouse monoclonal anti-β-actin antibody (AC-15; 1:2,000; ab6276)/anti-HIF-1α antibody (1:200; H1alpha67-ChIP Grade; Abcam Inc.), rabbit polyclonal anti-VEGF antibody (A-20; 1:200; sc-152)/anti-PKM2 antibody (1:500; ab38237), or rabbit monoclonal anti-RBP2 antibody (ab177486; 1:1000; Abcam Inc.). […] The amount of each protein was then evaluated by scanning densitometry.

[2] = MTT cell viability assay of RGC-5 cells subjected to oxygen glucose deprivation (OGD); assay type: cell-based, mouse; conditions: mouse, RGC-5 cells subjected to oxygen glucose deprivation (OGD), cytotoxic effect
Method: (§7) Moscatilin was purchased from EMMX Biotechnology (EN10271, CA, USA) and dissolved in DMSO (vehicle). […] […] Its therapeutic effects were evaluated by MTT and Western blotting assays.
as §6, with “([…]),” for “(iii) OGD and administration of moscatilin (0.1 μM in DMEM) at 1 hour pre-OGD (Pre-OGD Mos 0.1 μM),”
(§8) Mitochondria NADPH dependent oxidoreductases were capable of reducing MTT to form formazan. Therefore, an increase in the amount of dark purple formazan corresponded to greater cell viability. MTT (0.5 mg/mL; Sigma-Aldrich) was added and allowed to react for 3 hr at 37° C. to the 96-well plates containing the original 100 μL of cells. The reduced MTT was then solubilized by adding 100 μL DMSO. After agitation of the plates, the OD of the solubilized formazan was measured using an ELISA reader (Synergy H1 Multi-Mode Reader BioTek Instruments) at 562 nm. Cell viability was expressed as OD values relative to the control (100%).

RGC-5 cells = experiment: as above; assay type: cell-based, mouse; conditions: Mus musculus
Method: as §7
as §6, with “([…]),” for “(iii) OGD and administration of moscatilin (0.1 μM in DMEM) at 1 hour pre-OGD (Pre-OGD Mos 0.1 μM),”
as §8

two cell lines = conditions: cited from earlier work
[3] = tested on: placental growth factor (PLGF); experiment: ELISA of retinal PLGF after I/R; assay type: in vivo, rat; conditions: pre-ischemia intravitreal 200 μg/5 μl Eylea (Eylea+I/R); Vehicle+I/R 39.53±5.25
Method: as §1, §2
The level of PLGF was determined using ELISA. […] The total protein in each sample was determined using a bicinchoninic acid protein kit (Thermo Fisher Scientific). The PLGF levels in the supernatant were measured using a PLGF ELISA kit (CSB-E07400r; Cusabio Life Scince) accordingly. […] The maximum absorbance (OD) at 450 nm was detected immediately using a microplate reader (Synergy H1 Hybrid Multi-Mode Reader, Biotek ELx800). […]

Clc1ccc(N/N=C(\c2ccccc2)c2ccccn2)nc1 [JIB-04]
level of HIF-1α (ratio to β-actin) (HIF-1α): 53.98±2.29%
level of VEGF (ratio to β-actin) (VEGF): 27.82±1.21%
level of RBP2 (ratio to β-actin) (RBP2): 5.83±1.43%
level of PKM2 (ratio to β-actin) (PKM2): 60.36±7.59%

COc1cc(CCc2cc(OC)c(O)c(OC)c2)ccc1O [moscatilin]
amount of NDP relative to β-actin ([1]; 0.1 μM moscatilin 1 hour pre-OGD, DMSO+DMEM = 100%, DMSO+OGD 44.54±3.15%): 108.38±29.33%
amount of NDP relative to β-actin ([1]; 0.1 μM moscatilin 1 h post-OGD): 54.36±3.88%
amount of NDP relative to β-actin ([1]; 0.1 μM moscatilin during OGD): 48.99±9.89%
viability at 10 μM ([2]; 10 μM moscatilin pre-OGD, n=4): 15.4 ± 3.09%
viability at 100 μM ([2]; 100 μM moscatilin pre-OGD, n=1): 12.5%
viability at 0.1 µM (RGC-5 cells; RGC5, 0.1 μM moscatilin during OGD, P=0.31 vs DMSO+OGD): 56 ± 4.08%
viability at 1 µM (RGC-5 cells; RGC5, 1 μM moscatilin pre-OGD, n=4): 66.4 ± 9.35%
viability at 0.1 µM (RGC-5 cells; RGC5, 1 h, 0.1 μM moscatilin at 1 hour post-OGD, P=0.41 vs DMSO+OGD): 52.6 ± 4.16%
viability at 0.1 µM (RGC-5 cells; RGC5, 1 h, 0.1 μM moscatilin at 1 hour pre-OGD, relative to DMSO+DMEM control (100%), DMSO+OGD 53.66±2.67%): 62.6 ± 4.35%
IC50 (two cell lines; 24 h, two cell lines, respectively, previous reports, read-out: IC50 of reduced cell viability): 7 µM and 6.7 µM
toxicity to cells (two cell lines; concentrations equal to or less than 1 μM, previous researches): non-toxic

CC(C)=CC[C@@H](O)C1=CC(=O)c2c(O)ccc(O)c2C1=O [shikonin]
level of HIF-1α (ratio to β-actin) (HIF-1α): 42.65±0.76%
level of VEGF (ratio to β-actin) (VEGF): 57.55±9.40%
level of RBP2 (ratio to β-actin) (RBP2): 3.40±0.23%
level of PKM2 (ratio to β-actin) (PKM2): 44.94±10.91%

Eylea: VEGF trap/anti-PLGF (Regeneron Pharmaceuticals Inc.)
level of PLGF [3]: 6.44 ± 0.60 pg/mL

avastin: VEGF antibody (Hoffmann-La Roche)
level of VEGF (ratio to β-actin) (VEGF): 5.38±2.51%
level of RBP2 (ratio to β-actin) (RBP2): 78.35±3.29%
level of PKM2 (ratio to β-actin) (PKM2): 84.44±4.53%
